In the NIST ThermoML archive (doi:10.1021/je300652k):
Numbers after ± are expanded uncertainties.

Details: Liquid, Pulse-echo method

FC(F)(F)C1(F)OC1(F)F (stereo unspecified) [2,2,3-trifluoro-3-(trifluoromethyl)oxirane]
speed of sound (253.15 K, 2510 kPa): 571.2 ± 1.8 m/s
speed of sound (253.15 K, 10040 kPa): 623.9 ± 1.8 m/s
speed of sound (253.15 K, 25020 kPa): 708 ± 1.7 m/s
speed of sound (253.15 K, 50030 kPa): 816.7 ± 1.7 m/s
speed of sound (253.15 K, 75010 kPa): 903.6 ± 1.9 m/s
speed of sound (253.15 K, 100040 kPa): 977.8 ± 2.1 m/s
speed of sound (253.15 K, 125040 kPa): 1043.1 ± 2.1 m/s
speed of sound (253.15 K, 150010 kPa): 1101.9 ± 2.3 m/s
speed of sound (253.15 K, 175030 kPa): 1155.8 ± 2.5 m/s
speed of sound (253.15 K, 200030 kPa): 1205.6 ± 2.5 m/s
speed of sound (253.15 K, 250060 kPa): 1295.5 ± 2.7 m/s
speed of sound (253.15 K, 300100 kPa): 1376.5 ± 2.9 m/s
speed of sound (253.15 K, 350000 kPa): 1449.2 ± 2.9 m/s
speed of sound (253.15 K, 400120 kPa): 1516.7 ± 3.1 m/s
speed of sound (283.15 K, 2500 kPa): 449.4 ± 1.9 m/s
speed of sound (283.15 K, 9990 kPa): 517.5 ± 1.8 m/s
speed of sound (283.15 K, 25000 kPa): 617.4 ± 1.7 m/s
speed of sound (283.15 K, 49990 kPa): 737.8 ± 1.7 m/s
speed of sound (283.15 K, 74990 kPa): 831.4 ± 1.7 m/s
speed of sound (283.15 K, 100050 kPa): 910 ± 1.9 m/s
speed of sound (283.15 K, 125050 kPa): 978.4 ± 2.1 m/s
speed of sound (283.15 K, 150010 kPa): 1039.3 ± 2.1 m/s
speed of sound (283.15 K, 175090 kPa): 1095.2 ± 2.3 m/s
speed of sound (283.15 K, 200080 kPa): 1146.8 ± 2.3 m/s
speed of sound (283.15 K, 250010 kPa): 1239.4 ± 2.5 m/s
speed of sound (283.15 K, 300020 kPa): 1321.5 ± 2.7 m/s
speed of sound (283.15 K, 350020 kPa): 1396.5 ± 2.9 m/s
speed of sound (283.15 K, 400120 kPa): 1465.2 ± 3.1 m/s
speed of sound (313.15 K, 2500 kPa): 326.6 ± 1.3 m/s
speed of sound (313.15 K, 10010 kPa): 420.6 ± 1.9 m/s
speed of sound (313.15 K, 25030 kPa): 538.8 ± 1.7 m/s
speed of sound (313.15 K, 50010 kPa): 670.9 ± 1.7 m/s
speed of sound (313.15 K, 75040 kPa): 769.9 ± 1.7 m/s
speed of sound (313.15 K, 100050 kPa): 852 ± 1.9 m/s
speed of sound (313.15 K, 125040 kPa): 922.8 ± 1.9 m/s
speed of sound (313.15 K, 150070 kPa): 986.2 ± 2.1 m/s
speed of sound (313.15 K, 175020 kPa): 1043.4 ± 2.1 m/s
speed of sound (313.15 K, 200020 kPa): 1095.8 ± 2.3 m/s
speed of sound (313.15 K, 250020 kPa): 1190.7 ± 2.5 m/s
speed of sound (313.15 K, 300010 kPa): 1274.7 ± 2.7 m/s
speed of sound (313.15 K, 350030 kPa): 1350.5 ± 2.9 m/s
speed of sound (313.15 K, 400060 kPa): 1420.2 ± 3 m/s
speed of sound (343.15 K, 10040 kPa): 332.6 ± 1 m/s
speed of sound (343.15 K, 25050 kPa): 471.3 ± 1.8 m/s
speed of sound (343.15 K, 50030 kPa): 614.1 ± 1.7 m/s
speed of sound (343.15 K, 75030 kPa): 718 ± 1.7 m/s
speed of sound (343.15 K, 100050 kPa): 803 ± 1.7 m/s
speed of sound (343.15 K, 125030 kPa): 875.8 ± 1.9 m/s
speed of sound (343.15 K, 150030 kPa): 940.5 ± 1.9 m/s
speed of sound (343.15 K, 175010 kPa): 999.1 ± 2.1 m/s
speed of sound (343.15 K, 200060 kPa): 1052.9 ± 2.3 m/s
speed of sound (343.15 K, 250050 kPa): 1149.1 ± 2.3 m/s
speed of sound (343.15 K, 299960 kPa): 1234.4 ± 2.5 m/s
speed of sound (343.15 K, 350090 kPa): 1311.5 ± 2.7 m/s
speed of sound (343.15 K, 400040 kPa): 1382.2 ± 3 m/s
speed of sound (373.15 K, 10010 kPa): 255 ± 1.1 m/s
speed of sound (373.15 K, 24970 kPa): 413.4 ± 0.8 m/s
speed of sound (373.15 K, 50060 kPa): 565.5 ± 1.7 m/s
speed of sound (373.15 K, 75000 kPa): 673 ± 1.7 m/s
speed of sound (373.15 K, 100040 kPa): 760 ± 1.7 m/s
speed of sound (373.15 K, 125040 kPa): 834.6 ± 1.7 m/s
speed of sound (373.15 K, 150040 kPa): 900.3 ± 1.9 m/s
speed of sound (373.15 K, 175000 kPa): 959.8 ± 2.1 m/s
speed of sound (373.15 K, 200070 kPa): 1014.2 ± 2.1 m/s
speed of sound (373.15 K, 249990 kPa): 1111.6 ± 2.3 m/s
speed of sound (373.15 K, 300030 kPa): 1198 ± 2.5 m/s
speed of sound (373.15 K, 350040 kPa): 1275.4 ± 2.7 m/s
speed of sound (373.15 K, 400010 kPa): 1346.4 ± 2.8 m/s
speed of sound (403.15 K, 20010 kPa): 322.5 ± 1 m/s
speed of sound (403.15 K, 25020 kPa): 367.5 ± 1 m/s
speed of sound (403.15 K, 50020 kPa): 525.9 ± 1.7 m/s
speed of sound (403.15 K, 75050 kPa): 636.7 ± 1.7 m/s
speed of sound (403.15 K, 100040 kPa): 725.7 ± 1.7 m/s
speed of sound (403.15 K, 125010 kPa): 801.5 ± 1.7 m/s
speed of sound (403.15 K, 150040 kPa): 868.4 ± 1.9 m/s
speed of sound (403.15 K, 175040 kPa): 928.7 ± 1.9 m/s
speed of sound (403.15 K, 200050 kPa): 983.8 ± 2.1 m/s
speed of sound (403.15 K, 250040 kPa): 1082.6 ± 2.3 m/s
speed of sound (403.15 K, 299980 kPa): 1169.6 ± 2.5 m/s
speed of sound (403.15 K, 350040 kPa): 1247.9 ± 2.5 m/s
speed of sound (403.15 K, 399990 kPa): 1319.9 ± 2.8 m/s
